{
  "source": "paper PMC4457528",
  "about": "“Identification of Novel Small Molecule Inhibitors of Oncogenic RET Kinase” (PLoS ONE, 2015)",
  "experiment_in_all_cases": "KinomeScan kinase panel, single concentration 10 µM",
  "type_in_all_cases": "binding",
  "key": {"[1]": {"molecular_target": "T1, KinomeScan kinase panel (Homo sapiens, UniProt Q13705)", "T1 construct": "purchased DiscoveRx (KinomeScan)", "T1 sequence (Q13705 19-512)": "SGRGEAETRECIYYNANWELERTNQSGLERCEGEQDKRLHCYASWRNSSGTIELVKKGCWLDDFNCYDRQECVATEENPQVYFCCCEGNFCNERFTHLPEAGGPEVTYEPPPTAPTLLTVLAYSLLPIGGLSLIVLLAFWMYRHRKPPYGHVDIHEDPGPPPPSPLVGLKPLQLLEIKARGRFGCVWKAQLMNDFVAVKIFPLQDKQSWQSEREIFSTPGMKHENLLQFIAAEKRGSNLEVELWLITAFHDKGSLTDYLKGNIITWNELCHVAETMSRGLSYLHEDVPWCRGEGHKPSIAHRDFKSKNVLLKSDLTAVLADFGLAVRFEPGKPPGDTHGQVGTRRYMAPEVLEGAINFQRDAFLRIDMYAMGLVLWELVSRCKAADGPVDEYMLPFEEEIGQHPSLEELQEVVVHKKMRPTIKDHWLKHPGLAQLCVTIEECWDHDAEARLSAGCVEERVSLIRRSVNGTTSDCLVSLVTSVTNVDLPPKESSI", "conditions": "ACVR2B, 10 µM"}, "[2]": {"molecular_target": "T2, KinomeScan kinase panel (Homo sapiens, UniProt Q9BXA7)", "T2 construct": "purchased DiscoveRx (KinomeScan)", "T2 sequence (Q9BXA7 1-367)": "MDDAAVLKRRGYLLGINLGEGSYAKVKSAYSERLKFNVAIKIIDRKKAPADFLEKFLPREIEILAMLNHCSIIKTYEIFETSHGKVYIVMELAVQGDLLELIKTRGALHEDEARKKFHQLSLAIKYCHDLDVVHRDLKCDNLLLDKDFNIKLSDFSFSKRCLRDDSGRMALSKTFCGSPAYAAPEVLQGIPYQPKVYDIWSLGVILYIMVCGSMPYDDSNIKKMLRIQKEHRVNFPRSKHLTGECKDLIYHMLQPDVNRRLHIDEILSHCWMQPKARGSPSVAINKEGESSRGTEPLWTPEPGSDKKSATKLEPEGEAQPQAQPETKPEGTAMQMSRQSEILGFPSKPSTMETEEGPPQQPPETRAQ", "conditions": "read-out: score (%)"}, "[3]": {"molecular_target": "T3, KinomeScan kinase panel (Homo sapiens, UniProt Q13546)", "T3 construct": "purchased DiscoveRx (KinomeScan)", "T3 sequence (Q13546 1-671)": "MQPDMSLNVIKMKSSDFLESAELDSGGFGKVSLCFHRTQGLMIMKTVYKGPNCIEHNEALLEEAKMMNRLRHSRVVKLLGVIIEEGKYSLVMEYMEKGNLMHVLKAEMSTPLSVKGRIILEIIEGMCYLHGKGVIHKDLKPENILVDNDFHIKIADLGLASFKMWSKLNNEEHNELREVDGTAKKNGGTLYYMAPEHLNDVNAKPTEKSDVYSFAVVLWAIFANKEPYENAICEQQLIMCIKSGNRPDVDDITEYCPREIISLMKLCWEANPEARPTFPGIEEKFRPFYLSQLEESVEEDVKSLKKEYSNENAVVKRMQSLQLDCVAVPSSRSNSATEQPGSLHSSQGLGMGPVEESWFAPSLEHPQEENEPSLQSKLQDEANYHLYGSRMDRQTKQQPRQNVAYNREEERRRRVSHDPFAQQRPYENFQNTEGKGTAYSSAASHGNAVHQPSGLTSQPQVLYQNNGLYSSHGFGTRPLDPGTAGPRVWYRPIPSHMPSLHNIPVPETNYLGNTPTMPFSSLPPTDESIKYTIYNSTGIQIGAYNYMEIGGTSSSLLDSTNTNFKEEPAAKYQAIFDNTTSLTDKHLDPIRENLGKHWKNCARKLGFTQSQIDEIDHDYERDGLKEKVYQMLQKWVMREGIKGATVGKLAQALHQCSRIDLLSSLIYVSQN", "conditions": "read-out: score (%)"}, "[4]": {"molecular_target": "T4, KinomeScan kinase panel (Homo sapiens, UniProt O43318)", "T4 construct": "purchased DiscoveRx (KinomeScan)", "T4 sequence (O43318 1-606)": "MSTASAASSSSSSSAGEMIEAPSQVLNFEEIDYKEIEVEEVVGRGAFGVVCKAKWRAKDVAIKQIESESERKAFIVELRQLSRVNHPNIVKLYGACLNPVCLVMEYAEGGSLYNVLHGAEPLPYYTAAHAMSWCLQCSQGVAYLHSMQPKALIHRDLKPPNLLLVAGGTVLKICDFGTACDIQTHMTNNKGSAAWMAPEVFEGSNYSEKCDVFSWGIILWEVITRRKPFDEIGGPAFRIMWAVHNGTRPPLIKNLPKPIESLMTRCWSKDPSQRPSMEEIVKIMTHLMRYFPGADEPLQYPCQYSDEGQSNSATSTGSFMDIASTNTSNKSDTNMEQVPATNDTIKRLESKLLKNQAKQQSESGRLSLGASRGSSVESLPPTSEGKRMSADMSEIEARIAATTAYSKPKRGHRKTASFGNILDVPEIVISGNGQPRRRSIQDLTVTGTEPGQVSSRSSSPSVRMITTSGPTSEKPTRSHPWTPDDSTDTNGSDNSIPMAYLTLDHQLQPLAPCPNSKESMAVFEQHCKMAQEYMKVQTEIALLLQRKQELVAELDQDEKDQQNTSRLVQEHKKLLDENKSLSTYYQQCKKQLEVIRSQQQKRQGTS", "conditions": "read-out: score (%)"}, "[5]": {"molecular_target": "T5, KinomeScan kinase panel (Homo sapiens, UniProt P0C264)", "T5 construct": "purchased DiscoveRx (KinomeScan)", "T5 sequence (P0C264 1-359)": "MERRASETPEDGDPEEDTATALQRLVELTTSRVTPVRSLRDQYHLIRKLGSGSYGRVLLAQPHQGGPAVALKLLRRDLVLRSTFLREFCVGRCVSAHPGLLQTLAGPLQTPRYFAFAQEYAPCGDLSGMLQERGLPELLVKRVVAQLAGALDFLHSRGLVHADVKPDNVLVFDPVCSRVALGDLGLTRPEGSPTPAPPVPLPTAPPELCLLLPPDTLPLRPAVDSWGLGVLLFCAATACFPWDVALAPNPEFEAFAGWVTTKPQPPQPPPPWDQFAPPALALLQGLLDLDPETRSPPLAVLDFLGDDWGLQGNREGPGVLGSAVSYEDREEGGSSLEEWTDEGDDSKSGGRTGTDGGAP", "conditions": "read-out: score (%)"}, "[6]": {"molecular_target": "T6, KinomeScan kinase panel (Homo sapiens, UniProt P08581)", "T6 construct": "purchased DiscoveRx (KinomeScan)", "T6 sequence (P08581 25-1390)": "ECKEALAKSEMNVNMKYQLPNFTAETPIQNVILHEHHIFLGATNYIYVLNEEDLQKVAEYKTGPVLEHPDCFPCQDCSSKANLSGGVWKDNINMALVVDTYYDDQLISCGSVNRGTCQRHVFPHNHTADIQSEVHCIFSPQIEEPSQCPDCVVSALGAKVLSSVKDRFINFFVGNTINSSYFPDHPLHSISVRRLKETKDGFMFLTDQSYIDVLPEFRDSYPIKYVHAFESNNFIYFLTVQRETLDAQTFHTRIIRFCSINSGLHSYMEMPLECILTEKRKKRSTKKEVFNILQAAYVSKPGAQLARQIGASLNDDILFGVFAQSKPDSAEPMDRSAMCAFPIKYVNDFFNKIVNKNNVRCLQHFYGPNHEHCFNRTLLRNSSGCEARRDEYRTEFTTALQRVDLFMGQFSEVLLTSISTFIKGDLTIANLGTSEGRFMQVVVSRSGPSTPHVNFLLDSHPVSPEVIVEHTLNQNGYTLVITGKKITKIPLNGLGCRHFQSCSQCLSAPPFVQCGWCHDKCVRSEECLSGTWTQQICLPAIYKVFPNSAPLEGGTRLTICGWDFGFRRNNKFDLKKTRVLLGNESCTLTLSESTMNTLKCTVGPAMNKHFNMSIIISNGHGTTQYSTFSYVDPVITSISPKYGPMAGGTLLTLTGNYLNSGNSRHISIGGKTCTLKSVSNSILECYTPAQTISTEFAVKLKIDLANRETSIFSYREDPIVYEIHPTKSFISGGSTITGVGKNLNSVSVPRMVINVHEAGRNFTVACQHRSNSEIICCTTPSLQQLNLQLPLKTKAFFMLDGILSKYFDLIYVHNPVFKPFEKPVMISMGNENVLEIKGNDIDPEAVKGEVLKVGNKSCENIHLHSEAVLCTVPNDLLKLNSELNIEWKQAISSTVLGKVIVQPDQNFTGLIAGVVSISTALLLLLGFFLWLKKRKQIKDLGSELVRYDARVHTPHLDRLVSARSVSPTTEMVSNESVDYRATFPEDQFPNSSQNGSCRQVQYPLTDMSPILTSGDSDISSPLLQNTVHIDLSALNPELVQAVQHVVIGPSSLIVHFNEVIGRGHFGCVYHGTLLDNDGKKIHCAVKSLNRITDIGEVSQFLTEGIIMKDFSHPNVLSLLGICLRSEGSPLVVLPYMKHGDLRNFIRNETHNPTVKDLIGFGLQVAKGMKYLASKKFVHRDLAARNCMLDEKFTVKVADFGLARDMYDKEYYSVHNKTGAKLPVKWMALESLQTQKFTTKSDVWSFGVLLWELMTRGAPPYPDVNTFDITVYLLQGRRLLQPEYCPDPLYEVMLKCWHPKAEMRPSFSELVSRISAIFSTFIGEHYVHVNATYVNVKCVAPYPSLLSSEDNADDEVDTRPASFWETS", "conditions": "MET, 10 µM"}, "[7]": {"molecular_target": "T7, KinomeScan kinase panel (Homo sapiens, UniProt O15530)", "T7 construct": "purchased DiscoveRx (KinomeScan)", "T7 sequence (O15530 1-556)": "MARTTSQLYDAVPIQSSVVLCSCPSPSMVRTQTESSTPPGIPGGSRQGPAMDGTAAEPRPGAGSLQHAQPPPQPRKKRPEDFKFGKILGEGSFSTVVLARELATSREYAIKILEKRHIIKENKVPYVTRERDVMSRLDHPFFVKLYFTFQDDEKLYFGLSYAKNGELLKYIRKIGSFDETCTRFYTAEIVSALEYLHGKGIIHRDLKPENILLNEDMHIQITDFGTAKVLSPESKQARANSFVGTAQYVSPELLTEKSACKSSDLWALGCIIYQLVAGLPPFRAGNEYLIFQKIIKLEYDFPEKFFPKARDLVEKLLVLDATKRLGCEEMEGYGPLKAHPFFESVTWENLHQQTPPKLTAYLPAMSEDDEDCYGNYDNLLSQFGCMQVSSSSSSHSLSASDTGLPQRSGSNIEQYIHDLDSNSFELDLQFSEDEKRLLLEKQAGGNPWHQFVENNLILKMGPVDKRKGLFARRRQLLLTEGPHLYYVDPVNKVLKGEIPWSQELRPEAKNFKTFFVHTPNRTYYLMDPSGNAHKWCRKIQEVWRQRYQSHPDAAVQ", "conditions": "PDPK1, 10 µM; read-out: score (%)"}, "[8]": {"molecular_target": "T8, KinomeScan kinase panel (Homo sapiens, UniProt Q5VT25)", "T8 construct": "purchased DiscoveRx (KinomeScan)", "T8 sequence (Q5VT25 whole entry)": "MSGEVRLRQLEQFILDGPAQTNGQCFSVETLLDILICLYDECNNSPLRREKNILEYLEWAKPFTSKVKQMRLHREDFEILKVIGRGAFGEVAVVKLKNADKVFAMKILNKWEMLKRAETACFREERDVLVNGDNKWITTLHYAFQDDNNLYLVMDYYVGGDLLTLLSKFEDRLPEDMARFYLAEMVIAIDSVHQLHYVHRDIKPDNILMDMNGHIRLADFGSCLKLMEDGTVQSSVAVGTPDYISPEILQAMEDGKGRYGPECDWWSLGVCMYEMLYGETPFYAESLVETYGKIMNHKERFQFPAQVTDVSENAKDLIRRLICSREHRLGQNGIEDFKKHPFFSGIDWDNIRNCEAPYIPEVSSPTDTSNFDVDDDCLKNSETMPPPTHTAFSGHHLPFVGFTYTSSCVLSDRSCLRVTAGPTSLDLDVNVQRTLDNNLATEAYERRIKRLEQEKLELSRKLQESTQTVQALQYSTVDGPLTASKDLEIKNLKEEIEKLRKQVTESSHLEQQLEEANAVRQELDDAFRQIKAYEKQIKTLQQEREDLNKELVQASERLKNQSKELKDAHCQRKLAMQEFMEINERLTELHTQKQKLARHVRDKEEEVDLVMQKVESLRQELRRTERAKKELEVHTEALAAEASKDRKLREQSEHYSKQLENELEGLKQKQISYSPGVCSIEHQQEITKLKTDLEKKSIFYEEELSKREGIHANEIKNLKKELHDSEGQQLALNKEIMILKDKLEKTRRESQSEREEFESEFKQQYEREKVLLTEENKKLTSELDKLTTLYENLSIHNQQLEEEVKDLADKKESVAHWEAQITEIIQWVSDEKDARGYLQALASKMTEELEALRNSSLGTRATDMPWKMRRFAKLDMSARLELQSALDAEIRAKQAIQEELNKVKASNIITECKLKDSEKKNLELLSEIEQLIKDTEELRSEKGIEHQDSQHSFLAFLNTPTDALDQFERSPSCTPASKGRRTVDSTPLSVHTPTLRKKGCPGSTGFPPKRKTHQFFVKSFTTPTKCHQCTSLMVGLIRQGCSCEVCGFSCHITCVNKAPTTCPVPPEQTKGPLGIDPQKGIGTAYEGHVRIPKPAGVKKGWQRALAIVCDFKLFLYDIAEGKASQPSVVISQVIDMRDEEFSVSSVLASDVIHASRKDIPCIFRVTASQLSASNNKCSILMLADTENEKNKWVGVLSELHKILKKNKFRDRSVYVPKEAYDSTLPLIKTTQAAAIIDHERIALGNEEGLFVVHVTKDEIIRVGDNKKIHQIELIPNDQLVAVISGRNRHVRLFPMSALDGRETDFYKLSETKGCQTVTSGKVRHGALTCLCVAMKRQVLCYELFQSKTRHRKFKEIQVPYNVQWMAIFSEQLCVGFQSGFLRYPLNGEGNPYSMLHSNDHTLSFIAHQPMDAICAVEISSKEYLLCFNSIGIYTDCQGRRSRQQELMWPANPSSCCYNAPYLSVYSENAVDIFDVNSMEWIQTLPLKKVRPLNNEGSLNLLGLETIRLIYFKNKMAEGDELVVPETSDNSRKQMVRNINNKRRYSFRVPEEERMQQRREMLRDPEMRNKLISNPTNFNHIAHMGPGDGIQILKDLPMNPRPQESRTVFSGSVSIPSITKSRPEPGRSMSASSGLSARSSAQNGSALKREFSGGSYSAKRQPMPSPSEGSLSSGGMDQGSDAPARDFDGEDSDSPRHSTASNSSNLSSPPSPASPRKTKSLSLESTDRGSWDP", "conditions": "MRCKA, 10 µM; read-out: score (%)"}},
  "note": "Like-named read-outs stand apart in the source and are kept apart here.",
  "data": [
    {"smiles": "CCN1CCN(Cc2ccc(NC(=O)c3ccc(C)c(NC(=O)c4cncc(-c5cccs5)c4)c3)cc2C(F)(F)F)CC1", "note": "[ALW-II-41-27]", "values": [
      {"measurement": "score (%)", "setting": "[1]", "result": "nb (Hits values higher than 30% were considered negative (no binding: nb))"},
      {"measurement": "remaining binding at 10 µM", "setting": "[2]; kinase TSSK1B, 10 µM", "result": "> 30", "unit": "%"},
      {"measurement": "remaining binding at 10 µM", "setting": "[3]; RIPK1, 10 µM", "result": 0.45, "unit": "%"},
      {"measurement": "remaining binding at 10 µM", "setting": "[4]; kinase TAK1, 10 µM", "result": 0, "unit": "%"},
      {"measurement": "remaining binding at 10 µM", "setting": "[5]; kinase SgK110, 10 µM", "result": "> 30", "unit": "%"},
      {"measurement": "score (%)", "setting": "[6]", "result": "nb (Hits values higher than 30% were considered negative (no binding: nb))"},
      {"measurement": "remaining binding at 10 µM", "setting": "[7]", "result": "> 30", "unit": "%"},
      {"measurement": "remaining binding at 10 µM", "setting": "[8]", "result": "> 30", "unit": "%"}
    ]},
    {"smiles": "CCN1CCN(Cc2ccc(NC(=O)c3ccc(C)c(C#Cc4cccnc4)c3)cc2C(F)(F)F)CC1", "note": "[XMD15-44]", "values": [
      {"measurement": "score (%)", "setting": "[1]", "result": "nb (Hits values higher than 30% were considered negative (no binding: nb))"},
      {"measurement": "remaining binding at 10 µM", "setting": "[2]; kinase TSSK1B, 10 µM", "result": 92, "unit": "%"},
      {"measurement": "remaining binding at 10 µM", "setting": "[3]; kinase RIPK1, 10 µM", "result": 0.05, "unit": "%"},
      {"measurement": "remaining binding at 10 µM", "setting": "[4]; kinase TAK1, 10 µM", "result": 0.2, "unit": "%"},
      {"measurement": "remaining binding at 10 µM", "setting": "[5]; kinase SgK110, 10 µM", "result": 100, "unit": "%"},
      {"measurement": "score (%)", "setting": "[6]", "result": "nb (Hits values higher than 30% were considered negative (no binding: nb))"},
      {"measurement": "remaining binding at 10 µM", "setting": "[7]", "result": 84, "unit": "%"},
      {"measurement": "remaining binding at 10 µM", "setting": "[8]", "result": "> 30", "unit": "%"}
    ]},
    {"smiles": "CCN1CCN(Cc2ccc(NC(=O)c3ccc(C)c(/C=C/c4cnc5[nH]ccc5c4Cl)c3)cc2C(F)(F)F)CC1", "note": "[HG-6-63-01, (E)-3-(2-(4-chloro-1H-pyrrolo[2,3-b]pyridin-5-yl)vinyl)-N-(4-((4-ethylpiperazin-1-yl)methyl)-3-(trifluoromethyl)phenyl)-4-methylbenzamide]", "values": [
      {"measurement": "score (%)", "setting": "[1]", "result": "nb (Hits values higher than 30% were considered negative (no binding: nb))"},
      {"measurement": "remaining binding at 10 µM", "setting": "[2]; TSSK1, 10 µM", "result": "> 30", "unit": "%"},
      {"measurement": "remaining binding at 10 µM", "setting": "[3]; RIPK1, 10 µM", "result": 0.05, "unit": "%"},
      {"measurement": "remaining binding at 10 µM", "setting": "[4]; TAK1, 10 µM", "result": 0.1, "unit": "%"},
      {"measurement": "remaining binding at 10 µM", "setting": "[5]; SgK110, 10 µM", "result": 29, "unit": "%"},
      {"measurement": "score (%)", "setting": "[6]", "result": "nb (Hits values higher than 30% were considered negative (no binding: nb))"},
      {"measurement": "remaining binding at 10 µM", "setting": "[7]", "result": "> 30", "unit": "%"},
      {"measurement": "remaining binding at 10 µM", "setting": "[8]", "result": 12, "unit": "%"}
    ]}
  ]
}
